The numbers were not newly measured in patent US20240066021A1, “METHODS FOR OPTIMIZING CFTR-MODULATOR THERAPY” (Children's Hospital Medical Center, priority 2021, published 2024), which cites them from elsewhere.

Like-named read-outs stand apart in the source and are kept apart here.

The subject of series [1] is patients treated with ivacaftor versus patients untreated with CFTR modulators.
The test system of series [2] is patients with at least one G551D mutation.
A further series concerns the target mTOR (Homo sapiens, UniProt P42345). To be noted: Target mTOR, Gene Symbol MTOR.
The next series concerns the target T1, TXNRD1 (Homo sapiens, UniProt Q16881).
T1 sequence (Q16881 151-649 limits assumed): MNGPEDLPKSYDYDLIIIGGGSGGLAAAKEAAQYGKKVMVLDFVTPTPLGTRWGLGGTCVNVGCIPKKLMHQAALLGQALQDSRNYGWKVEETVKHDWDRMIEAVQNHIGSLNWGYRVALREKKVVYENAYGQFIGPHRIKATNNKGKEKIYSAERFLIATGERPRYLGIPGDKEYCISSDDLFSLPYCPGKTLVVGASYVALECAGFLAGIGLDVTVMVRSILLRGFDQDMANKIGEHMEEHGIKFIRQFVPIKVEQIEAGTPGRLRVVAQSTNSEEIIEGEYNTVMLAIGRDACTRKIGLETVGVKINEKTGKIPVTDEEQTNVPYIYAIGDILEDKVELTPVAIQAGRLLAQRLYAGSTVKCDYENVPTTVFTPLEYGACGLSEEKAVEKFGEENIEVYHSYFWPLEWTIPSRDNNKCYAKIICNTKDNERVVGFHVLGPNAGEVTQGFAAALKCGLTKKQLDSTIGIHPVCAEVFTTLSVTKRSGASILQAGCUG

For the next series, the target named is HTR1B (Homo sapiens, UniProt P28222). To be noted: Target HTR1B, Gene Symbol HTR1B.
Chain of HTR1B (P28222 whole entry): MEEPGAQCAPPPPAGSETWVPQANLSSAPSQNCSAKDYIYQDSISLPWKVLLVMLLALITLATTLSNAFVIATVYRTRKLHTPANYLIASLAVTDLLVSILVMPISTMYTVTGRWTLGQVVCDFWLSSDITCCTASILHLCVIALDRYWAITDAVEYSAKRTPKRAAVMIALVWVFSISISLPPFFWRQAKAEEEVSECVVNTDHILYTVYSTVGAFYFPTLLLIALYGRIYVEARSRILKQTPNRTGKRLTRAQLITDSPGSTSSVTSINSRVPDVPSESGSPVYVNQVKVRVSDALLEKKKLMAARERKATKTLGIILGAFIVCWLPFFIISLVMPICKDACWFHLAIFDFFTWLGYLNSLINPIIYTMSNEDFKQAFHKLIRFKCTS
Another series concerns the target T2, Guanylatecyclase A(NPR1) (Homo sapiens, UniProt P16066).
T2 sequence (P16066 33-1061): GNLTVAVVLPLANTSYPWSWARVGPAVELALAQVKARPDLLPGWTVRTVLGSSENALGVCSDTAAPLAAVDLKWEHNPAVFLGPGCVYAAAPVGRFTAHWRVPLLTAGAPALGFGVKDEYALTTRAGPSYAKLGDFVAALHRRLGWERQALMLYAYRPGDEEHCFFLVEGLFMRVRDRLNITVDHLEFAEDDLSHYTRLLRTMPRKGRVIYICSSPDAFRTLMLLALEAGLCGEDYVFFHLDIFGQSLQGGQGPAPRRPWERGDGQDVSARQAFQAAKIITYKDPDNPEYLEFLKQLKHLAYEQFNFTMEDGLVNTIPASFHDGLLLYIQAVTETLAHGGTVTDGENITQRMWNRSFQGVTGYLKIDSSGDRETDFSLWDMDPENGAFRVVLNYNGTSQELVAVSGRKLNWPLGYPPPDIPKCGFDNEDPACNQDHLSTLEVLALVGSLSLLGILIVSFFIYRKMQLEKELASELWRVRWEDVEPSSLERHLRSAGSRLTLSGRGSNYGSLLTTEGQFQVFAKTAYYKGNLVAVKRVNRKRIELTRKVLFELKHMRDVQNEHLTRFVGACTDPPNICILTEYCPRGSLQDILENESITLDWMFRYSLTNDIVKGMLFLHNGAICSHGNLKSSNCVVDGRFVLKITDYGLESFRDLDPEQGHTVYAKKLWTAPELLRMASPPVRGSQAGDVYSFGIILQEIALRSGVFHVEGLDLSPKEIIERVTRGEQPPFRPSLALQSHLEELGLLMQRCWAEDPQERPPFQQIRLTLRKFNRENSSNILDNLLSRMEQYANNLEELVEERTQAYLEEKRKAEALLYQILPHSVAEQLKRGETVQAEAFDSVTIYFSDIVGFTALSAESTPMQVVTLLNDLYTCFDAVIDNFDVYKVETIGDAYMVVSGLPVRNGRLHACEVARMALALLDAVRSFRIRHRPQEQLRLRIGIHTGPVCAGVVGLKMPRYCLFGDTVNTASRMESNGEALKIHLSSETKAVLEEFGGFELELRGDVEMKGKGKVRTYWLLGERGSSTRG
Conditions: Target Guanylatecyclase A(NPR1), Gene Symbol NPR1.

A further series has as its target NR2A (Homo sapiens, UniProt Q12879).
The next series concerns the target NR2A/NR3A (Homo sapiens, UniProt Q12879).
Series [3] deals with PI3K catclass IB(p110-gamma) (Homo sapiens, UniProt P48736).
Chain of PI3K catclass IB(p110-gamma) (P48736 whole entry): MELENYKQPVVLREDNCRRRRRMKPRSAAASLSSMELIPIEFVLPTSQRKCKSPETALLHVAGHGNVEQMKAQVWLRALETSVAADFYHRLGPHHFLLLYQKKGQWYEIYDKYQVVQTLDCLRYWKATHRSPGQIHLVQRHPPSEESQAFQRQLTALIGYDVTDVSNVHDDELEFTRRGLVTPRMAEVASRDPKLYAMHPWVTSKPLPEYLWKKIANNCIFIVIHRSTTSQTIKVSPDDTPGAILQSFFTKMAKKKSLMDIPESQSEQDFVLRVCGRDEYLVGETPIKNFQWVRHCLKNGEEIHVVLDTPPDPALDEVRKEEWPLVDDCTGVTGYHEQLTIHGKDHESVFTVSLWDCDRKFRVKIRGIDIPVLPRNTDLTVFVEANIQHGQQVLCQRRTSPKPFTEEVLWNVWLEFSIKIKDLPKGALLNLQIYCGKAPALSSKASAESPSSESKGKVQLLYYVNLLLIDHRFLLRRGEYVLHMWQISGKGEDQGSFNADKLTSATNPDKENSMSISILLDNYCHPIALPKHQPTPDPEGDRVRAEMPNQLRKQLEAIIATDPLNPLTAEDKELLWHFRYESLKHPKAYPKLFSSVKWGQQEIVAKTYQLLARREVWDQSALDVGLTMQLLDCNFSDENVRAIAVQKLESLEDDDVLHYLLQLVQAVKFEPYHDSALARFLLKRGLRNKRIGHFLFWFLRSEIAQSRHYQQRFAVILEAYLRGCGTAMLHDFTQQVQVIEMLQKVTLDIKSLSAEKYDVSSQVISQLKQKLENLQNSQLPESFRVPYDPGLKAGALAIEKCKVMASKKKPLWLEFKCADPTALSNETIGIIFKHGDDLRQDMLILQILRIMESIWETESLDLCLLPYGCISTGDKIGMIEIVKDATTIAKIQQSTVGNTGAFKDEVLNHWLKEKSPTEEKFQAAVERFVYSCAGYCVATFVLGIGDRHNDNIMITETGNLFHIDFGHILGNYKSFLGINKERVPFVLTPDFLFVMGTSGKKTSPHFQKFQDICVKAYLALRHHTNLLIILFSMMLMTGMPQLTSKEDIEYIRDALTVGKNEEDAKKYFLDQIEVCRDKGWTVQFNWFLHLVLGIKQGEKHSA
Another series concerns the target T3, IKK-beta (Homo sapiens, UniProt O14920).
T3 sequence (O14920 1-756): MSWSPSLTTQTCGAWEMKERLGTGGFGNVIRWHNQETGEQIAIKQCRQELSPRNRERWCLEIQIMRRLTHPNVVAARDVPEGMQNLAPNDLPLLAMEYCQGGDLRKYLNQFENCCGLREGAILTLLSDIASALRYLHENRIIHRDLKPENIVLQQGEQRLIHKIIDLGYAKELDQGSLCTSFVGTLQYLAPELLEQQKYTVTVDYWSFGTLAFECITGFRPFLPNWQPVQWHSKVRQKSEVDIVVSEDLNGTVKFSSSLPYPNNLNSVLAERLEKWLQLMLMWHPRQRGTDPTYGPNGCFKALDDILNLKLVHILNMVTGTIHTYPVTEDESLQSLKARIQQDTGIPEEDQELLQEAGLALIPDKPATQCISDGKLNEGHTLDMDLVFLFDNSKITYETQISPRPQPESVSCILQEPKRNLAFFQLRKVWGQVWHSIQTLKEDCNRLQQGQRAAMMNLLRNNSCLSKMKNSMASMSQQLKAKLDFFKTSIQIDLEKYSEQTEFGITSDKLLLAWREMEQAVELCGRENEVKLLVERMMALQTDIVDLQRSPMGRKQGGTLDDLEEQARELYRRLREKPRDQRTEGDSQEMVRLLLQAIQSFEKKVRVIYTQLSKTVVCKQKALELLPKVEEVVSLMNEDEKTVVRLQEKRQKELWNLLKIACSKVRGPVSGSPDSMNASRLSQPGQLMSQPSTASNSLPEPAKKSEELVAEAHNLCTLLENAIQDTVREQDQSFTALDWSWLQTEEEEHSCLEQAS
Conditions: Target IKK-beta, Gene Symbol IKBKB.

The target of another series is SCN2A (Homo sapiens, UniProt Q99250).
Setting [4] is: six months after drug initiation.
Where [5] appears, read: Target NR2A, Gene Symbol GRIN2A.

Chain of NR2A (Q12879 23-1464, other chains not shown): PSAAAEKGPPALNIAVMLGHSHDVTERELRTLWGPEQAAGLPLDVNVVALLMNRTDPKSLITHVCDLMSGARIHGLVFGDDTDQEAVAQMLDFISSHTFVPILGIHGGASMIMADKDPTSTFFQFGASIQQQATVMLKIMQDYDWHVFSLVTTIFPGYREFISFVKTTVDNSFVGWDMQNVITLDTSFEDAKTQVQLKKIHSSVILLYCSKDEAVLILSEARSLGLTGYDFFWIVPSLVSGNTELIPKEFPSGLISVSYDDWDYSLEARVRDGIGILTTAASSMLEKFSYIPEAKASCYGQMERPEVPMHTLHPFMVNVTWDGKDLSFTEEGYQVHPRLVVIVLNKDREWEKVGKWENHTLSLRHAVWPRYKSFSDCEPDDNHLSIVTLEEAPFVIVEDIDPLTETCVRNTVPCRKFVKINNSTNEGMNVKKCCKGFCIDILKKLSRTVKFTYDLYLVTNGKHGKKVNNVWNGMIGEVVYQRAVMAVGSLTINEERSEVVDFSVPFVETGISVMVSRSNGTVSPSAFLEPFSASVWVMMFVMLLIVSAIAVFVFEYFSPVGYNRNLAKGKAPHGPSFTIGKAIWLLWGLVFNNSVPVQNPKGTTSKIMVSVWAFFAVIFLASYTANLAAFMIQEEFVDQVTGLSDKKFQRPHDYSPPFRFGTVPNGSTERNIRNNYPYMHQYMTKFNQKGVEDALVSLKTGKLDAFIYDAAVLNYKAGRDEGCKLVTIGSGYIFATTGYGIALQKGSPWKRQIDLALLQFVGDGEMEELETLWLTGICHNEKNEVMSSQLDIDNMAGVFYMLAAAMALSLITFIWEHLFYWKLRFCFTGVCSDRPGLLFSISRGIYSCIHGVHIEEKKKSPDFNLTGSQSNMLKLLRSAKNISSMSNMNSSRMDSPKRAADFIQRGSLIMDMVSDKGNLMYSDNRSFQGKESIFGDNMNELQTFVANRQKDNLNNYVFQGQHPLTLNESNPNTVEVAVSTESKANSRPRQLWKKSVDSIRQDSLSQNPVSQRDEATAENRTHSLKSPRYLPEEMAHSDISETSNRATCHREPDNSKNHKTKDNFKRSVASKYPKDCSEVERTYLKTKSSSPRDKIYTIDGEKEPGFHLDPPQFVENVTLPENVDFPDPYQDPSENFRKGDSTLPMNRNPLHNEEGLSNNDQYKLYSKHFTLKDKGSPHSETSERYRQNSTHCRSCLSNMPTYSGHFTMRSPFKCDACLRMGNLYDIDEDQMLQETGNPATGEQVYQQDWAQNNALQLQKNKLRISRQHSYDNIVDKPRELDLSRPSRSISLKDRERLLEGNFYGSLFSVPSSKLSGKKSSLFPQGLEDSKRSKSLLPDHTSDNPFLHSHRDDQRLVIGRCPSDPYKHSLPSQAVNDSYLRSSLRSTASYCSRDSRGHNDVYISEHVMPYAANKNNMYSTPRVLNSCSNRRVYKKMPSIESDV
Chain of NR2A/NR3A (Q12879 23-1464, other chains not shown): as above

With `CC(C)(C)c1cc(C(C)(C)C)c(NC(=O)c2c[nH]c3ccccc3c2=O)cc1O` [ivacaftor], in [1] (longer term follow up), the BMI entry is “maintain improved”, the hospitalizations entry is “decreasing” and the pulmonary exacerbations result is on record as “decreasing”. For the same compound, the lung function decline entry in series [1] (versus patients untreated with CFTR modulators) is recorded as “slowed”. In [2] (setting [4]), the “mean change in ppFEV1” value was 6.7 (95% CI 4.9-8.5), the “mean change in weight” value is 2.5 kg, the “mean decline in sweat chloride” value is on record as −54 mEq and the “quality of life scores” value was “improvement”. In addition, the rate of hospitalization entry in series [2] (six months after drug initiation, p<0.001) is recorded as “decreased”. Also, the “portion of subjects with physiologic CFTR correction that did not have improvement in FEV1>5% (poor lung function response)” value in series [2] (subjects with sweat chloride shifts by −40 to −80 mEq/L) was approximately 50%.
Consider `CO[C@H]1C[C@@H]2CC[C@@H](C)[C@@](O)(O2)C(=O)C(=O)N2CCCC[C@H]2C(=O)O[C@H]([C@H](C)C[C@@H]2CC[C@@H](OP(C)(C)=O)[C@H](OC)C2)CC(=O)[C@H](C)/C=C(\C)[C@@H](O)[C@@H](OC)C(=O)[C@H](C)C[C@H](C)/C=C/C=C/C=C/1C` [Ridaforolimus], for which the Effect entry at mTOR is “Inhibition”.
On to `Cn1c(COP(=O)(NCCBr)NCCBr)cnc1[N+](=O)[O-]` [Evofosfamide], for which the Effect entry on TXNRD1 was “Inhibition”.
Consider `CN(C)CCc1c[nH]c2ccc(CS(=O)(=O)N3CCCC3)cc12` [Almotriptan], for which, at HTR1B, the Effect entry is listed as “Activation”.
For the compound Nesiritide, the Effect entry at Guanylatecyclase A(NPR1) is on record as “Activation”.
In the case of `CO[C@H]1C[C@@H]2CC[C@@H](C)[C@@](O)(O2)C(=O)C(=O)N2CCCC[C@H]2C(=O)O[C@H]([C@H](C)C[C@@H]2CC[C@@H](OCCO)[C@H](OC)C2)CC(=O)[C@H](C)/C=C(\C)[C@@H](O)[C@@H](OC)C(=O)[C@H](C)C[C@H](C)/C=C/C=C/C=C/1C` [Everolimus], the Effect entry on mTOR is listed as “Inhibition”.
Consider `CNC1(c2ccccc2Cl)CCCCC1=O` (stereo not shown) [Ketamine], for which the Effect entry on NR2A and at NR2A/NR3A was “Inhibition” throughout.
For `C=CCN(/C=C1/C(=O)O[C@H](COC)[C@@]2(C)C1=C(O)C(=O)C1=C2[C@H](OC(C)=O)C[C@]2(C)C(=O)CC[C@@H]12)CC=C` [Sonolisib], the Effect entry in series [3] is “Inhibition”.
With `COc1cc(O)c(CC=C(C)C)c(O)c1C(=O)/C=C/c1ccc(O)cc1` [Xanthohumol], the Effect result at IKK-beta was “Inhibition”.
On to `NC1=N[C@H](O)[C@H]2[C@H]3O[C@]4(O)O[C@@H]([C@@H](O)[C@@]2(N1)[C@@H]4O)[C@]3(O)CO` [Tetrodotoxin], for which the Effect entry at SCN2A was “Inhibition”.
For the compound `CN(C)CCc1c[nH]c2ccc(Cn3cncn3)cc12` [Rizatriptan], on HTR1B, the Effect entry is listed as “Activation”.
Take `CC12CC3CC(C)(C1)CC(N)(C3)C2` [Memantine]: the Effect entry at NR2A (setting [5]) is on record as “Inhibition”; on NR2A/NR3A (Target NR2A/NR3A, Gene Symbol GRIN2A), “Inhibition”.
In the case of `NC(=O)CNC1Cc2ccccc2C1` [Indantadol], the Effect result at NR2A (setting [5]) was “Inhibition”.
For `CNS(=O)(=O)CCc1ccc2[nH]cc(C3CCN(C)CC3)c2c1` [Naratriptan], the Effect entry on HTR1B is listed as “Activation”.
As for `Nc1nc(N)c2nc(-c3cccc(O)c3)c(-c3cccc(O)c3)nc2n1` [TG100115], the Effect entry in series [3] (Target PI3K catclass IB(p110-gamma), Gene Symbol PIK3CG) is “Inhibition”.
As for `C[C@@H]1CN(C(=O)CN2CC(C)(C)OC[C@H]2C(=O)Nc2cc(Cl)cc3c2[nH]c2cnccc23)C[C@H](C)O1` [MLN0415], the Effect result on IKK-beta was “Inhibition”.
Regarding `CN1CCN(c2ncc(-c3cc(Cl)cc(Cl)c3Cl)c(N)n2)CC1` [Sipatrigine], the Effect result on SCN2A is given as “Inhibition”.
For the compound `O=[N+]([O-])O[C@H]1CO[C@H]2[C@@H]1OC[C@H]2O[N+](=O)[O-]` [Isosorbide dinitrate], on Guanylatecyclase A(NPR1), the Effect entry is recorded as “Inhibition”.
As for `CC(Cc1ccccc1)(NC(=O)CN)c1ccccc1` (stereo not shown) [Remacemide], the Effect entry at NR2A (setting [5]) is “Inhibition”.
Consider `COc1ccc(-c2ccc3c(N4CCOC[C@@H]4C)nc(N4CCOC[C@@H]4C)nc3n2)cc1CO` [AZD8055], for which, on mTOR, the Effect entry is listed as “Inhibition”.
With `CN[C@@H]1CCc2[nH]c3ccc(C(N)=O)cc3c2C1` [Frovatriptan], at HTR1B, the Effect result is listed as “Activation”.
Regarding `CO[C@H]1C[C@@H]2CC[C@@H](C)[C@@](O)(O2)C(=O)C(=O)N2CCCC[C@H]2C(=O)O[C@H]([C@H](C)C[C@@H]2CC[C@@H](OC(=O)C(C)(CO)CO)[C@H](OC)C2)CC(=O)[C@H](C)/C=C(\C)[C@@H](O)[C@@H](OC)C(=O)[C@H](C)C[C@H](C)/C=C/C=C/C=C/1C` [Temsirolimus intracellular, Temsirolimus], the Effect entry on mTOR is “Inhibition”.
With `CC(=O)[O-].CC(=O)[O-].CCc1c(CC)c2cc3nc(cnc4cc(OCCOCCOCCOC)c(OCCOCCOCCOC)cc4ncc4nc(cc1[n-]2)C(CCCO)=C4C)C(C)=C3CCCO.O.[Gd+3]` [Motexafin gadolinium], the Effect result at TXNRD1 (Target TXNRD1, Gene Symbol TXNRD1) is given as “Inhibition”.
